“Also recorded” adds a separate entry of the source. Where two headings read alike, the source gives them in different places.
What was measured:
Type in all cases: cell-based, human
[1] = system: cluster 1-like/CD64^Hi,PD-L1^Hi cDCs; assay: Acquisition of the CD64Hi,PD-L1Hi cDC phenotype in elite controller cells exposed to virus with inhibitory drugs (flow cytometry)
[2] = system: cluster 1-like/CD64^Hi,PD-L1^Hi cDCs; assay: Induction of CD64Hi,PD-L1Hi cDCs in PBMCs incubated with TLR3 agonist and nanoparticle-encapsulated HIV-1 Gag DNA, without live virus; conditions: PBMCs from healthy (HIV-negative) individuals; 2 μg/ml Poly I:C and/or polymer nanoparticles loaded with 100 nucleotide HIV-1 Gag DNA; no live virus
Method: PBMC or isolated cDCs were stained with LIVE/DEAD cell blue viability dye (Invitrogen, Carlsbad, Calif.) and monoclonal antibodies directed against CD11c (Biolegend), CD14 (BD), HLA-DR, CD64, PDL-1, ICAM1, CD16, SLAMF8 (Biolegend) and subsequently analyzed on a Fortessa cytometer (BD Biosciences, San Jose, Calif.). For intracellular cytokine staining, cells were treated with a commercial fixation/permeabilization kit (BioLegend) according to the manufacturer's protocol. Data were analyzed with FlowJo software (Tree Star). cDCs were identified from bulk PBMCs as a population of viable CD14^− lymphocytes expressing high levels of CD11c and HLA-DR.
Finally, Applicants explored how Applicants might further exploit this TBK1-dependent innate immune sensing pathway to boost the fraction of cDCs acquiring the cluster 1 phenotype without exposure to live virus. For this purpose, Applicants incubated PBMCs from healthy individuals or ECs simultaneously with a TLR3 agonist (Poly(I:C)) and single- or double-stranded HIV-1 Gag DNA (ssDNA or dsDNA, respectively) encapsulated in polymeric nanoparticles. […]

[3] = system: cluster 1-like/CD64^Hi,PD-L1^Hi cDCs

Compound: O=C(NCCCNc1nc(Nc2cccc(NC(=O)N3CCCC3)c2)ncc1I)c1cccs1 [BX795]
- induction of the cluster 1-like/CD64^Hi,PD-L1^Hi population ([1]; EC PBMCs, 1 μM BX795 added at the time of viral addition, p=0.0020, Wilcoxon signed-rank test): dramatic and significant abrogation

Compound: O=C(N[C@H](Cc1ccccc1)C(=O)O)c1sc2cc(F)ccc2c1Cl [TLR3 inhibitor]
- acquisition of the cluster 1/CD64^Hi,PD-L1^Hi cDC phenotype ([1]; elite controllers (ECs), virus plus TLR3 or TLR4 antagonist vs DMSO, p=0.0^2, Wilcoxon matched-pairs signed-rank test): modest, but significant, effect

Compound: Poly(I:C)
- proportion of cluster 1-like/CD64^Hi,PD-L1^Hi cDCs [2]: insufficient
- proportion of CD64^Hi PDL1^Hi cells among cDCs [3]: significantly induce
- proportion of cluster 1-like/CD64^Hi,PD-L1^Hi cDCs ([3]; 24 hours): significantly induce; also recorded: induced a larger population; also recorded: significant increase

Source: patent publication US20190144942A1, “METHODS FOR IDENTIFYING AND MODULATING IMMUNE PHENOTYPES” (priority 2016, published 2019)
